Reference: US9777008B2, “PRMT5 inhibitors and uses thereof” (Epizyme, Inc., priority 2012, dated 2017)

These molecules were tested against PRMT5/MEP50 (Homo sapiens (Human), UniProt O14744) (assay: PRMT5 Biochemical Assay (PRMT5/MEP50 enzyme assay on peptide substrate, 3H-SAM Flashplate)).
Description: S-adenosylmethionine (SAM), S-adenosylhomocysteine (SAH), bicine, KCl, Tween20, dimethylsulfoxide (DMSO), bovine skin gelatin (BSG), and Tris(2-carboxyethyl)phosphine hydrochloride solution (TCEP) were purchased from Sigma-Aldrich at the highest level of purity possible. ^3H-SAM was purchase from American Radiolabeled Chemicals with a specific activity of 80 Ci/mmol. 384-well streptavidin Flashplates were purchased from PerkinElmer.
Peptide representative of human histone H4 residues 1-15 was synthesized with a C-terminal linker-affinity tag motif and a C-terminal amide cap by 21st Century Biochemicals. The peptide was high high-performance liquid chromatography (HPLC) purified to greater than 95% purity and confirmed by liquid chromatography mass spectrometry (LC-MS). The sequence was Ac-[…][K-Biot]-amide (SEQ ID NO.:3).
Molecular Biology: Full-length human PRMT5 (NM_006109.3) transcript variant 1 clone was amplified from a fetal brain cDNA library, incorporating flanking 5′ sequence encoding a FLAG tag ([…]) (SEQ ID NO.:4) fused directly to Ala 2 of PRMT5. Full-length human MEP50 (NM_024102) clone was amplified from a human testis cDNA library incorporating a 5′ sequence encoding a 6-histidine tag (MHHHHHH) (SEQ ID NO.:5) fused directly to Arg 2 of MEP50. The amplified genes were sublconed into pENTR/D/TEV (Life Technologies) and subsequently transferred by Gateway™ attL×attR recombination to pDEST8 baculvirus expression vector (Life Technologies).
Recombinant baculovirus and Baculovirus-Infected Insect Cells (BIIC) were generated according to Bac-to-Bac kit instructions (Life Technologies) and Wasilko, 2006, respectively. Protein over-expression was accomplished by infecting exponentially growing Spodoptera frugiperda (SF9) cell culture at 1.2×10^6 cell/ml with a 5000 fold dilution of BIIC stock. Infections were carried out at 27° C. for 72 hours, harvested by centrifugation, and stored at −80° C. for purification.
Flag-PRMT5/6His-MeP50 was eluted with 300 mM Imidazole in the same buffer. The purity of recovered protein was 87%. Reference: Wasilko, D. J. and S. E. Lee: “TIPS: titerless infected-cells preservation and scale-up” Bioprocess J., 5 (2006), pp. 29-32.
General Procedure for PRMT5/MEP50 Enzyme Assays on Peptide Substrates.
The assays were all performed in a buffer consisting of 20 mM Bicine (pH=7.6), 1 mM TCEP, 0.005% BSG, and 0.002% Tween20, prepared on the day of use. Compounds in 100% DMSO (1 ul) were spotted into a polypropylene 384-well V-bottom plates (Greiner) using a Platemate Plus outfitted with a 384-channel head (Thermo Scientific). DMSO (1 ul) was added to Columns 11, 12, 23, 24, rows A-H for the maximum signal control and 1 ul of SAH, a known product and inhibitor of PRMT5/MEP50, was added to columns 11, 12, 23, 24, rows I-P for the minimum signal control. A cocktail (40 ul) containing the PRMT5/MEP50 enzyme and the peptide was added by Multidrop Combi (Thermo-Fisher). The compounds were allowed to incubate with PRMT5/MEP50 for 30 min at 25 degrees Celsius, then a cocktail (10 ul) containing ^3H-SAM was added to initiate the reaction (final volume=51 ul). The final concentrations of the components were as follows: PRMT5/MEP50 was 4 nM, ^3H-SAM was 75 nM, peptide was 40 nM, SAH in the minimum signal control wells was 100 uM, and the DMSO concentration was 1%. The assays were stopped by the addition of non-radioactive SAM (10 ul) to a final concentration of 600 uM, which dilutes the ^3H-SAM to a level where its incorporation into the peptide substrate is no longer detectable. 50 ul of the reaction in the 384-well polypropylene plate was then transferred to a 384-well Flashplate and the biotinylated peptides were allowed to bind to the streptavidin surface for at least 1 hour before being washed three times with 0.1% Tween20 in a Biotek ELx405 plate washer. […]

PRMT5/MEP50, sequence (O14744 other isoform, or with tags, fused parts or gaps): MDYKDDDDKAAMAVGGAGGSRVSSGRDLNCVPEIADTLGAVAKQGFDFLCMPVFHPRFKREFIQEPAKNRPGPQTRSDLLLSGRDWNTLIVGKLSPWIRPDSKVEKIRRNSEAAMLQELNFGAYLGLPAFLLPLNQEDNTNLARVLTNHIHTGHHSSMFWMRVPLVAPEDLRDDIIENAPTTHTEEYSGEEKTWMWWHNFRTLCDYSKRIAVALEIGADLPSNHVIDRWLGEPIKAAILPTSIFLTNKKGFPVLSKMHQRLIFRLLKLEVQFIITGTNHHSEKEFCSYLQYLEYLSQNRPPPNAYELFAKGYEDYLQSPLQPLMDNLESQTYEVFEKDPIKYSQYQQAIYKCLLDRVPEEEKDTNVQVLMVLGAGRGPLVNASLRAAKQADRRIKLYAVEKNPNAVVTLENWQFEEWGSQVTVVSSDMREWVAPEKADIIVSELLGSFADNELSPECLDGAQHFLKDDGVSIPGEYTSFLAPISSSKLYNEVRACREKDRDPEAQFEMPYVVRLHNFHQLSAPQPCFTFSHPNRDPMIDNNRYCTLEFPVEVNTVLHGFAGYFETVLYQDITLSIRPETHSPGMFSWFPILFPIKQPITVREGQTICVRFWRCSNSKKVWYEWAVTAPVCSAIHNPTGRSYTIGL
PRMT5/MEP50, sequence (Q9BQA1 other isoform, or with tags, fused parts or gaps partner): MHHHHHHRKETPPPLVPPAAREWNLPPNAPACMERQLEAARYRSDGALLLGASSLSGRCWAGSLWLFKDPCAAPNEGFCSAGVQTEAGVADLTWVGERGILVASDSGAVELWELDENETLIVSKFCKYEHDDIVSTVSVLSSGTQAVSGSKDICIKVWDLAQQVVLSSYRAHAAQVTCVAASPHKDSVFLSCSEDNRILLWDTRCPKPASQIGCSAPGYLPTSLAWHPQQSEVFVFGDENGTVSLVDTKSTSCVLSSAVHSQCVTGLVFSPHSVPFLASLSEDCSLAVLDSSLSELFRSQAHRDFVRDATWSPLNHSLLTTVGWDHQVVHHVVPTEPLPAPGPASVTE

IC50	SMILES
< 100 nM	O=C(Cn1ccc2cnc(-c3ccnc(NCC(O)CN4CCc5ccccc5C4)c3)nc21)N1CCOCC1 (stereo not drawn) [Compound 234, 2-(2-(2-((3-(3,4-dihydroisoquinolin-2(1H)-yl)-2-hydroxypropyl)amino)pyridin-4-yl)-7H-pyrrolo[2,3-d]pyrimidin-7-yl)-1-morpholinoethanone]
< 100 nM	Cn1cc2ccc(-c3ccnc(NCC(O)CN4CCc5ccccc5C4)c3)cc2n1 (stereo not drawn) [Compound 236]
< 100 nM	Cn1cnc2ccc(-c3ccnc(NCC(O)CN4CCc5ccccc5C4)c3)nc21 (stereo not drawn) [Compound 238, 1-(3,4-dihydroisoquinolin-2(1H)-yl)-3-((4-(3-methyl-3H-imidazo[4,5-b]pyridin-5-yl)pyridin-2-yl)amino)propan-2-ol]
< 100 nM	Cn1ccc2cnc(-c3ccnc(NCC(O)CN4CCc5ccccc5C4)c3)nc21 (stereo not drawn) [Compound 239, 1-(3,4-dihydroisoquinolin-2(1H)-yl)-3-((4-(7-methyl-7H-pyrrolo[2,3-d]pyrimidin-2-yl)pyridin-2-yl)amino)propan-2-ol]
< 100 nM	OC(CNc1cc(-c2ccc3ncn(C4CCNC4)c3c2)ccn1)CN1CCc2ccccc2C1 (stereo not drawn) [Compound 240]
< 100 nM	OC(CNc1cc(-c2ccc3ncn(C4CCNCC4)c3c2)ccn1)CN1CCc2ccccc2C1 (stereo not drawn) [Compound 241]
< 100 nM	CNC(=O)Cn1ccc2cnc(-c3ccnc(NCC(O)CN4CCc5ccccc5C4)c3)nc21 (stereo not drawn) [Compound 245]
< 100 nM	O=C(Cn1ccc2cnc(-c3ccnc(NCC(O)CN4CCc5ccccc5C4)c3)nc21)N1CCCCC1 (stereo not drawn) [Compound 246]
< 100 nM	CN1CCN(C(=O)Cn2ccc3cnc(-c4ccnc(NCC(O)CN5CCc6ccccc6C5)c4)nc32)CC1 (stereo not drawn) [Compound 247]
< 100 nM	CN1CCC(n2cnc3ccc(-c4ccnc(NCC(O)CN5CCc6ccccc6C5)c4)cc32)C1 (stereo not drawn) [Compound 250]
< 100 nM	OC(CNc1cc(-c2ccc3ncn(C4CCOCC4)c3c2)ccn1)CN1CCc2ccccc2C1 (stereo not drawn) [Compound 251, 1-(3,4-dihydroisoquinolin-2(1H)-yl)-3-((4-(1-(tetrahydro-2H-pyran-4-yl)-1H-benzo[d]imidazol-6-yl)pyridin-2-yl)amino)propan-2-ol]
< 100 nM	CN1CCC(n2cnc3ccc(-c4ccnc(NCC(O)CN5CCc6ccccc6C5)c4)cc32)CC1 (stereo not drawn) [Compound 252]
< 100 nM	OC(COc1cccc(-c2ncc3ccn(C4CCNCC4)c3n2)c1)CN1CCc2ccccc2C1 (stereo not drawn) [Compound 253]
< 100 nM	OC(CNc1cc(-c2ncc3ccn(C4CNC4)c3n2)ccn1)CN1CCc2ccccc2C1 (stereo not drawn) [Compound 254]
< 100 nM	OC(CNc1cc(-c2ncc3ccn(C4CCNCC4)c3n2)ccn1)CN1CCc2ccccc2C1 (stereo not drawn) [Compound 255]
< 100 nM	CC(=O)N1CCC(n2ccc3cnc(-c4ccnc(NCC(O)CN5CCc6ccccc6C5)c4)nc32)CC1 (stereo not drawn) [Compound 256]
< 100 nM	O[C@@H](COc1cccc(-c2cccc3cccnc23)c1)CN1CCc2ccccc2C1 [Compound 257, (R)-1-(3,4-dihydroisoquinolin-2(1H)-yl)-3-(3-(quinolin-8-yl)phenoxy)propan-2-ol]
101 to 1000 nM	O[C@H](COc1cccc(-c2cccc3cccnc23)c1)CN1CCc2ccccc2C1 [Compound 258, (S)-1-(3,4-dihydroisoquinolin-2(1H)-yl)-3-(3-(quinolin-8-yl)phenoxy)propan-2-ol]

IC50	SMILES
101 to 1000 nM	Cn1cncc1C(=O)Nc1cccc(OC[C@H](O)CN2CCc3ccccc3C2)c1 [Compound 259]
1000 to 10000 nM	Cn1cncc1C(=O)Nc1cccc(OC[C@@H](O)CN2CCc3ccccc3C2)c1 [Compound 260]
< 100 nM	Cn1cc2ccc(-c3cccc(NCC(O)CN4CCc5ccccc5C4)c3)nc2n1 (stereo not drawn) [Compound 261]
< 100 nM	OC(CNc1cc(-c2ccc3ncn(C4COC4)c3c2)ccn1)CN1CCc2ccccc2C1 (stereo not drawn) [Compound 265]
< 100 nM	Cc1ncc2ccc(-c3cccc(OCC(O)CN4CCc5ccccc5C4)c3)cn12 (stereo not drawn) [Compound 266, 1-(3,4-dihydroisoquinolin-2(1H)-yl)-3-(3-(3-methylimidazo[1,5-a]pyridin-6-yl)phenoxy)propan-2-ol]
< 100 nM	OC(COc1cccc(-c2ccc3ncn(C4COC4)c3c2)c1)CN1CCc2ccccc2C1 (stereo not drawn) [Compound 269]
< 100 nM	CC(=O)N(CC(O)CN1CCc2ccccc2C1)c1cccc(-c2ccc3ncn(C)c3c2)c1 (stereo not drawn) [Compound 273, N-(3-(3,4-dihydroisoquinolin-2(1H)-yl)-2-hydroxypropyl)-N-(3-(1-methyl-1H-benzo[d]imidazol-6-yl)phenyl)acetamide]
< 100 nM	Cn1cnc2ccc(-c3ccnc(NC[C@H](O)CN4CCc5ccccc5C4)c3)cc21 [Compound 275]
101 to 1000 nM	Cn1cnc2ccc(-c3ccnc(NC[C@@H](O)CN4CCc5ccccc5C4)c3)cc21 [Compound 276]
> 10000 nM	Cn1cnc2ccc(-c3cccc(OCC(O)CN4Cc5ccccc5C(F)(F)C4)c3)cc21 (stereo not drawn) [Compound 277]
> 40000 nM	CN1CCCCC1COCC(O)CN1CCc2ccccc2C1 (stereo not drawn) [Compound 289]
> 40000 nM	CN1CCC(OCC(O)CN2CCc3ccccc3C2)CC1 (stereo not drawn) [Compound 293]
> 40000 nM	CCn1ccnc1COCC(O)CN1CCc2ccccc2C1 (stereo not drawn) [Compound 295]
> 40000 nM	OC(COC1CCCNC1)CN1CCc2ccccc2C1 (stereo not drawn) [Compound 297]
> 40000 nM	OC(COC1CCNCC1)CN1CCc2ccccc2C1 (stereo not drawn) [Compound 298]
> 40000 nM	OC(COCC1CCCCO1)CN1CCc2ccccc2C1 (stereo not drawn) [Compound 304]
> 40000 nM	OC(COC1CCNC1)CN1CCc2ccccc2C1 (stereo not drawn) [Compound 306]
> 40000 nM	CN1CCC(OCC(O)CN2CCc3ccccc3C2)C1 (stereo not drawn) [Compound 307]
